In patent US12446584B2, “Termiticide composition and methods for treating termites” (ADAMA MAKHTESHIM LTD., priority 2013, dated 2025):
Where two headings read alike, the source gives them in different places.

Assays:
Assay type in all cases: in vivo
[1] = system: Eastern Subterranean Reticulitermes flavipes termites; experiment: Transfer effects among nestmates (donor/recipient Petri dish arenas); settings: Reticulitermes flavipes, donors treated with 50 ppm
Protocol: (§1) The purpose of this study was to determine whether there is transference of […] among nestmates of subterranean termites. Arenas for this study consisted of a 15 cm Petri dish. […] Donor and untreated marked control termites were marked using RustOleum® Marking Paint, using methodology described by Keefer et al. 2012.
(§2) Two untreated soldier termites for each species were added to each arena to simulate colony dynamics. Post-treatment observations for mortality were made at 4 h and then daily through day 7.

[2] = system: Formosan Coptotermes formosanus termites; experiment: as above; settings: donors treated with 50 ppm; for mortality at 50 ppm: Coptotermes formosanus
Protocol: as §1, §2

[3] = system: Eastern subterranean termites (Reticulitermes flavipes); experiment: Thin plate bioassay
Protocol: (§3) A laboratory study was conducted, using recently collected R. flavipes and C. formosanus. Thin plate bioassays were assembled using 0.6 cm glass and 0.6 cm clear Lexan. A sheet of 20.3×66 cm glass was used for the bottom. Two pieces of 2.5×61 cm glass were laid along the long edges, and two pieces of […]. Each arena had 450 g of screened sand evenly applied, and moistened with deionized water to help hold it in place during construction of the arenas. Fisher brand tongue depressors, cut in half, were used as a food source for the termites, and placed at one end of the arena. Prior to adding the Lexan top sheets, 0.6 cm holes were drilled at one end, and three 0.6 cm treatment apertures were drilled equally spaced apart at the center line. One 8 cm Petri dish with a 0.6 cm hole drilled in the bottom was lined up with the hole at the end of the top sheet, and glued down. Glue was allowed to dry for 72 hours. Large binder clips were used to hold the arena together.
(§4) Termiticide solutions were prepared as follows: Fipronil 0.017%; Fipronil 0.03%; Imidacloprid 0.05%; Imi-Fip 0.067% (Imidacloprid 0.05%, Fipronil 0.017%); and Untreated Control (water only). Ten ml of each finished solution of termiticide were applied to each arena: each of the three treatment apertures received 3.3 ml of termiticide. The treatments were allowed to dry for 24 hours, and the treatment apertures were covered with a 2.5×7.5 cm microscope slide. In each Petri dish, 500 worker and 15 soldier termites were added, using either R. flavipes or C. formosanus. Each treatment was replicated four times. Data regarding distance tunneled and mortality were collected daily for eight days. Data was analyzed using Analysis of Variance (ANOVA) and means were separated by Tukey's HSD (Honest Significant Difference test (IBM SPSS v 19).

[4] = system: Formosan subterranean termites (Coptotermes formosanus); experiment: Thin plate bioassay
Protocol: as §3, §4

[5] = 4 h, donor:recipient ratio 1:19, 4 h, read-out: Mean total % mortality of donors and recipients
[6] = 4 h, donor:recipient ratio 5:15, 4 h, read-out: Mean total % mortality of donors and recipients
[7] = 4 h, donor:recipient ratio 10:10, 4 h, read-out: Mean total % mortality of donors and recipients
[8] = 4 h, donor:recipient ratio 15:5, 4 h, read-out: Mean total % mortality of donors and recipients
[9] = 24 h, by treatment (all ratios), 1 d, read-out: Mean % mortality of donors and recipients
[10] = 24 h, donor:recipient ratio 1:19, 1 d, read-out: Mean total % mortality of donors and recipients
[11] = 24 h, donor:recipient ratio 5:15, 1 d, read-out: Mean total % mortality of donors and recipients
[12] = 24 h, donor:recipient ratio 10:10, 1 d, read-out: Mean total % mortality of donors and recipients
[13] = 24 h, donor:recipient ratio 15:5, 1 d, read-out: Mean total % mortality of donors and recipients
[14] = 48 h, by treatment (all ratios), 2 d, read-out: Mean % mortality of donors and recipients
[15] = 48 h, donor:recipient ratio 1:19, 2 d, read-out: Mean total % mortality of donors and recipients
[16] = 48 h, donor:recipient ratio 5:15, 2 d, read-out: Mean total % mortality of donors and recipients
[17] = 48 h, donor:recipient ratio 10:10, 2 d, read-out: Mean total % mortality of donors and recipients
[18] = 48 h, donor:recipient ratio 15:5, 2 d, read-out: Mean total % mortality of donors and recipients
[19] = 72 h, by treatment (all ratios), 3 d, read-out: Mean % mortality of donors and recipients
[20] = 72 h, donor:recipient ratio 1:19, 3 d, read-out: Mean total % mortality of donors and recipients
[21] = 72 h, donor:recipient ratio 5:15, 3 d, read-out: Mean total % mortality of donors and recipients
[22] = 72 h, donor:recipient ratio 10:10, 3 d, read-out: Mean total % mortality of donors and recipients
[23] = 72 h, donor:recipient ratio 15:5, 3 d, read-out: Mean total % mortality of donors and recipients
[24] = 96 h, by treatment (all ratios), 4 d, read-out: Mean % mortality of donors and recipients
[25] = 96 h, donor:recipient ratio 1:19, 4 d, read-out: Mean total % mortality of donors and recipients
[26] = 96 h, donor:recipient ratio 5:15, 4 d, read-out: Mean total % mortality of donors and recipients
[27] = 96 h, donor:recipient ratio 10:10, 4 d, read-out: Mean total % mortality of donors and recipients
[28] = 96 h, donor:recipient ratio 15:5, 4 d, read-out: Mean total % mortality of donors and recipients
[29] = 120 h, by treatment (all ratios), 5 d, read-out: Mean % mortality of donors and recipients
[30] = 120 h, donor:recipient ratio 1:19, 5 d, read-out: Mean total % mortality of donors and recipients
[31] = 120 h, donor:recipient ratio 5:15, 5 d, read-out: Mean total % mortality of donors and recipients
[32] = 120 h, donor:recipient ratio 10:10, 5 d, read-out: Mean total % mortality of donors and recipients
[33] = 120 h, donor:recipient ratio 15:5, 5 d, read-out: Mean total % mortality of donors and recipients
[34] = 144 h, by treatment (all ratios), 6 d, read-out: Mean % mortality of donors and recipients
[35] = 144 h, donor:recipient ratio 1:19, 6 d, read-out: Mean total % mortality of donors and recipients
[36] = 144 h, donor:recipient ratio 5:15, 6 d, read-out: Mean total % mortality of donors and recipients
[37] = 144 h, donor:recipient ratio 10:10, 6 d, read-out: Mean total % mortality of donors and recipients
[38] = 144 h, donor:recipient ratio 15:5, 6 d, read-out: Mean total % mortality of donors and recipients
[39] = 168 h, by treatment (all ratios), 7 d, read-out: Mean % mortality of donors and recipients
[40] = 168 h, donor:recipient ratio 1:19, 7 d, read-out: Mean total % mortality of donors and recipients
[41] = 168 h, donor:recipient ratio 5:15, 7 d, read-out: Mean total % mortality of donors and recipients
[42] = 168 h, donor:recipient ratio 10:10, 7 d, read-out: Mean total % mortality of donors and recipients
[43] = 168 h, donor:recipient ratio 15:5, 7 d, read-out: Mean total % mortality of donors and recipients
[44] = 0.017% solution, 1 day post-treatment
[45] = 0.017% solution, 2 days post-treatment
[46] = 0.017% solution, 3 days post-treatment
[47] = 0.017% solution, 4 days post-treatment
[48] = 0.017% solution, 5 days post-treatment
[49] = 0.017% solution, 6 days post-treatment
[50] = 0.017% solution, 7 days post-treatment
[51] = 0.017% solution, 8 days post-treatment
[52] = 0.03% solution, 1 day post-treatment
[53] = 0.03% solution, 2 days post-treatment
[54] = 0.03% solution, 3 days post-treatment
[55] = 0.03% solution, 4 days post-treatment
[56] = 0.03% solution, 5 days post-treatment
[57] = 0.03% solution, 6 days post-treatment
[58] = 0.03% solution, 7 days post-treatment
[59] = 0.03% solution, 8 days post-treatment

N#Cc1nn(-c2c(Cl)cc(C(F)(F)F)cc2Cl)c(N)c1[S+]([O-])C(F)(F)F [Fipronil, 5-amino-1-[2,6-dichloro-4-(trifluoromethyl)phenyl]-4-[(1-R,S)(trifluoromethyl)sulfinyl]-1H-pyrazole-3-carbonitrile]
mortality at 50 ppm ([1]; 4 h, by treatment (all ratios), 4 h, read-out: Mean % mortality of donors and recipients): 3.75% | mortality at 50 ppm [1, 5]: 3.75% | mortality at 50 ppm [1, 6]: 5% | mortality at 50 ppm [1, 7]: 1.25% | mortality at 50 ppm [1, 8]: 5% | mortality at 50 ppm [1, 9]: 23.5% | mortality at 50 ppm [1, 10]: 10% | mortality at 50 ppm [1, 11]: 17.5% | mortality at 50 ppm [1, 12]: 17.5% | mortality at 50 ppm [1, 13]: 56.2% | mortality at 50 ppm [1, 14]: 57.2% | mortality at 50 ppm [1, 15]: 16.2% | mortality at 50 ppm [1, 16]: 53.8% | mortality at 50 ppm [1, 17]: 71.2% | mortality at 50 ppm [1, 18]: 87.5% | mortality at 50 ppm [1, 19]: 70.3% | mortality at 50 ppm [1, 20]: 22.5% | mortality at 50 ppm [1, 21]: 70% | mortality at 50 ppm [1, 22]: 88.8% | mortality at 50 ppm [1, 23]: 100% | mortality at 50 ppm [1, 24]: 72.8% | mortality at 50 ppm [1, 25]: 26.2% | mortality at 50 ppm [1, 26]: 72.5% | mortality at 50 ppm [1, 27]: 92.5% | mortality at 50 ppm [1, 28]: 100% | mortality at 50 ppm [1, 29]: 83.8% | mortality at 50 ppm [1, 30]: 52.5% | mortality at 50 ppm [1, 31]: 82.5% | mortality at 50 ppm [1, 32]: 100% | mortality at 50 ppm [1, 33]: 100% | mortality at 50 ppm [1, 34]: 98.1% | mortality at 50 ppm [1, 35]: 97.5% | mortality at 50 ppm [1, 36]: 95% | mortality at 50 ppm [1, 37]: 100% | mortality at 50 ppm [1, 38]: 100% | mortality at 50 ppm [1, 39]: 100% | mortality at 50 ppm [1, 40]: 100% | mortality at 50 ppm [1, 41]: 100% | mortality at 50 ppm [1, 42]: 100% | mortality at 50 ppm [1, 43]: 100% | mortality at 50 ppm [2, 5]: 0% | mortality at 50 ppm [2, 6]: 3.75% | mortality at 50 ppm [2, 7]: 17.5% | mortality at 50 ppm [2, 8]: 16.2% | mortality at 50 ppm [2, 9]: 50.6% | mortality at 50 ppm [2, 10]: 0% | mortality at 50 ppm [2, 11]: 2.5% | mortality at 50 ppm [2, 12]: 100% | mortality at 50 ppm [2, 13]: 100% | mortality at 50 ppm [2, 14]: 53.1% | mortality at 50 ppm [2, 15]: 8.75% | mortality at 50 ppm [2, 16]: 3.75% | mortality at 50 ppm [2, 17]: 100% | mortality at 50 ppm [2, 18]: 100% | mortality at 50 ppm [2, 19]: 59.7% | mortality at 50 ppm [2, 20]: 18.8% | mortality at 50 ppm [2, 21]: 20% | mortality at 50 ppm [2, 22]: 100% | mortality at 50 ppm [2, 23]: 100% | mortality at 50 ppm [2, 24]: 67.8% | mortality at 50 ppm [2, 25]: 25% | mortality at 50 ppm [2, 26]: 46.2% | mortality at 50 ppm [2, 27]: 100% | mortality at 50 ppm [2, 28]: 100% | mortality at 50 ppm [2, 29]: 82.5% | mortality at 50 ppm [2, 30]: 30% | mortality at 50 ppm [2, 31]: 100% | mortality at 50 ppm [2, 32]: 100% | mortality at 50 ppm [2, 33]: 100% | mortality at 50 ppm [2, 34]: 85.5% | mortality at 50 ppm [2, 35]: 30% | mortality at 50 ppm [2, 36]: 100% | mortality at 50 ppm [2, 37]: 100% | mortality at 50 ppm [2, 38]: 100% | mortality at 50 ppm [2, 39]: 90% | mortality at 50 ppm [2, 40]: 60% | mortality at 50 ppm [2, 41]: 100% | mortality at 50 ppm [2, 42]: 100% | mortality at 50 ppm [2, 43]: 100% | Mean % mortality of donors and recipients ([2]; by treatment (all ratios), 4 h): 9.37 b % | Mean % mortality of donors and recipients ([2]; by treatment (all ratios), 4 h, listed as fipronil): 1% | Mean % mortality [3, 44]: 5.25 a % | Mean % mortality [3, 45]: 30.50 a % | Mean % mortality [3, 46]: 75.00 a % | Mean % mortality [3, 47]: 77.50 a % | Mean % mortality [3, 48]: 90.00 b % | Mean % mortality [3, 49]: 95.50 b % | Mean % mortality [3, 50]: 100.00 a % | Mean % mortality [3, 51]: 100.00 a % | Mean % mortality [3, 52]: 0.75 b % | Mean % mortality [3, 53]: 2.25 b % | Mean % mortality [3, 54]: 67.50a % | Mean % mortality [3, 55]: 70.00 a % | Mean % mortality [3, 56]: 90.00 b % | Mean % mortality [3, 57]: 100.00 a % | Mean % mortality [3, 58]: 100.00 a % | Mean % mortality [3, 59]: 100.00 a % | Mean % mortality [4, 44]: 1.37 a % | Mean % mortality [4, 45]: 8.62 b % | Mean % mortality [4, 46]: 15.00 a % | Mean % mortality [4, 47]: 30.60 a % | Mean % mortality [4, 48]: 72.20 a % | Mean % mortality [4, 49]: 72.20 c % | Mean % mortality [4, 50]: 83.50 b % | Mean % mortality [4, 51]: 100.00a % | Mean % mortality [4, 52]: 5.05 a % | Mean % mortality [4, 53]: 17.25ab % | Mean % mortality [4, 54]: 19.75 a % | Mean % mortality [4, 55]: 49.40 a % | Mean % mortality [4, 56]: 70.50 a % | Mean % mortality [4, 57]: 99.25 a % | Mean % mortality [4, 58]: 100.00 a % | Mean % mortality [4, 59]: 100.00a %
